TGI data for six compounds are collected here from PubChem BioAssay (NCI).

Test systems include MDA-MB-435; ACHN renal; BT-549 breast; NCI-H23 lung; SW-620 colon; COLO 205 colon; HCT-116 colon; KM12 colon; SNB-19 CNS; 786-0 renal; NCI/ADR-RES ovarian; A549 NSCLC; U251 CNS; SR leukemia; LOX IMVI melanoma; RPMI-8226 leukemia; CCRF-CEM leukemia; NCI-H226 lung; A498 renal; NCI-H460 lung.
What all share (assay): inhibition of tumour cell growth, NCI panel, 48 h

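Dose response: 5 concentrations. Exposure: 48 h. Format: 96-well plates. Endpoint: linear interpolation; highest concentration if not reached. TGI: concentration producing complete growth inhibition.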

As for `COc1cc(CNC(=O)CCCCCCCCCCSSCCCCCCCCCCC(=O)NCc2ccc(O)c(OC)c2)ccc1O`, the TGI in the assay with MDA-MB-435, with ACHN renal, in the assay with BT-549 breast, in the assay with NCI-H23 lung, in the assay on SW-620 colon and with COLO 205 colon was above 10 µM throughout. The TGI in the assay on HCT-116 colon, in the assay with KM12 colon, with SNB-19 CNS, with 786-0 renal, with NCI/ADR-RES ovarian and with A549 NSCLC was above 10 µM in each case. Also, the TGI in the assay with U251 CNS, with SR leukemia, in the assay on LOX IMVI melanoma, with RPMI-8226 leukemia, in the assay on CCRF-CEM leukemia and in the assay with NCI-H226 lung was above 10 µM throughout. Besides, the TGI with A498 renal and with NCI-H460 lung was above 10 µM in each case.
As for `COC(=O)c1cc(/C=C2\Cc3cc4c(cc3C2=O)CCC4)cc2c1CCC2`, the TGI in the assay on MDA-MB-435, in the assay with ACHN renal, in the assay with BT-549 breast, with NCI-H23 lung, in the assay with SW-620 colon and in the assay on COLO 205 colon was above 100 µM throughout. Besides, the TGI in the assay with HCT-116 colon, in the assay with KM12 colon, in the assay with SNB-19 CNS, in the assay on 786-0 renal, with NCI/ADR-RES ovarian and with A549 NSCLC was above 100 µM throughout. Further, the TGI in the assay with U251 CNS, in the assay on SR leukemia, with LOX IMVI melanoma, in the assay with RPMI-8226 leukemia, in the assay with CCRF-CEM leukemia and in the assay on NCI-H226 lung was above 100 µM each time. The TGI in the assay on A498 renal and with NCI-H460 lung was above 100 µM in each case.
Consider `COc1cc2c(cc1OC)C(=O)/C(=C/c1ccccc1)C2`, for which the TGI with MDA-MB-435, with ACHN renal, in the assay with BT-549 breast, with NCI-H23 lung, in the assay on SW-620 colon and with COLO 205 colon was above 100 µM throughout. The TGI in the assay on HCT-116 colon, in the assay on KM12 colon, in the assay with SNB-19 CNS, in the assay on 786-0 renal, with NCI/ADR-RES ovarian and with A549 NSCLC was above 100 µM in each case. The TGI in the assay with U251 CNS is above 100 µM; in the assay with SR leukemia it was above 100 µM; with LOX IMVI melanoma, above 100 µM; in the assay with RPMI-8226 leukemia, 71.6 µM; in the assay on CCRF-CEM leukemia, 99.4 µM; in the assay on NCI-H226 lung, above 100 µM. Also, the TGI was 7.24 µM in the assay on A498 renal and above 100 µM with NCI-H460 lung.
Regarding `C[C@]12CCC(=O)C=C1CC[C@@H]1[C@@H]2CC[C@]2(C)C(=O)/C(=C\c3ccccc3)C[C@@H]12`, the TGI with MDA-MB-435 is above 100 µM; with ACHN renal it was above 100 µM; in the assay on BT-549 breast, 72.6 µM; in the assay on NCI-H23 lung, 62.5 µM; with SW-620 colon it was above 56.9 µM; in the assay on COLO 205 colon, 55.9 µM. Further, the TGI in the assay on HCT-116 colon was above 48.7 µM; in the assay with KM12 colon it was above 64.3 µM; in the assay with SNB-19 CNS, above 100 µM; in the assay on 786-0 renal it was above 66.8 µM; with NCI/ADR-RES ovarian, 72.7 µM; with A549 NSCLC, above 68 µM. Further, the TGI in the assay on U251 CNS is above 69.4 µM; in the assay on SR leukemia, above 49.2 µM; in the assay with LOX IMVI melanoma, above 51.5 µM; in the assay on RPMI-8226 leukemia, above 26.1 µM; with CCRF-CEM leukemia it was 23.3 µM; with NCI-H226 lung, 33.5 µM. Besides, the TGI was 42.4 µM with A498 renal and above 66 µM in the assay with NCI-H460 lung.
In the case of `Cc1ccc(S(=O)(=O)N/N=C2/CC[C@H](C(C)(C)C)C[C@@H]2C)cc1`, the TGI in the assay with MDA-MB-435 turned out to be 32.7 µM; in the assay on ACHN renal, 30.3 µM; in the assay with BT-549 breast, 29.8 µM; with NCI-H23 lung, 36.8 µM; in the assay on SW-620 colon, 50.7 µM; in the assay on COLO 205 colon it was 35.4 µM. Also, the TGI with HCT-116 colon was 29.3 µM; in the assay on KM12 colon, 49.7 µM; with SNB-19 CNS, 32.6 µM; with 786-0 renal, 31.8 µM; in the assay with NCI/ADR-RES ovarian, 31.2 µM; in the assay on A549 NSCLC, 33.4 µM. Further, the TGI in the assay on U251 CNS was 33.5 µM; in the assay with SR leukemia, above 100 µM; with LOX IMVI melanoma, 27.9 µM; with RPMI-8226 leukemia, above 100 µM; in the assay on CCRF-CEM leukemia it was 38.8 µM; in the assay with NCI-H226 lung, 28.3 µM. Moreover, the TGI with A498 renal amounted to 31.6 µM; with NCI-H460 lung, 32.2 µM.
On to `Cc1ccc(OCCn2cc(Nc3ccccc3)c(=O)[nH]c2=O)cc1`, for which the TGI in the assay on MDA-MB-435, in the assay with ACHN renal, in the assay with BT-549 breast, with NCI-H23 lung, with SW-620 colon and in the assay on COLO 205 colon was above 100 µM each time. The TGI in the assay on HCT-116 colon, in the assay on KM12 colon, with SNB-19 CNS, in the assay on 786-0 renal, in the assay on NCI/ADR-RES ovarian and with A549 NSCLC was above 100 µM in each case. Moreover, the TGI with U251 CNS, in the assay on SR leukemia, with LOX IMVI melanoma, in the assay with RPMI-8226 leukemia, with CCRF-CEM leukemia and in the assay with NCI-H226 lung was above 100 µM each time. Moreover, the TGI in the assay on A498 renal and with NCI-H460 lung was above 100 µM throughout.
